# Measured values from patent US12552846B2, “Modified BCL9 mimetic peptides” (Sapience Therapeutics, Inc., priority 2019, dated 2026).
# Square brackets hold non-standard residues; d marks the D form. Peptide text beside a SMILES is read from it. d1Nal = N[C@H](Cc1cccc2ccccc12)C(=O)O; d2Nal = N[C@H](Cc1ccc2ccccc2c1)C(=O)O
# System: HL60 promyelocytic leukemia cells
# Assay: Cytotoxicity assay in HL60 cells (Annexin V FITC / PI flow cytometry)
# Assay type: cell-based
# Conditions: 48 hours
# Description: We examined the cytotoxicity of peptides BCL-26 and BCL-27 using an assay in HL60 promyelocytic leukemia cells. HL60 PML suspension cells were set at a density of 3.5×10^3 cells/well in 150 μL of RPMI+1.5% fetal bovine serum (FBS) in a 96 well dish. BCL-26 or BCL-27, reconstituted at a concentration of 10 mg/mL in 20 mM His, pH 7.5, was added to each well at a volume of 50 μL to a final concentration range of 0-80 μM. Cells were incubated with peptide for 48 hours at 37° C. Cell viability was quantified by flow cytometry using abcam Annexin V FITC apoptosis detection kit. Briefly, cells were washed with PBS and resuspended in 1× assay buffer containing Annexin V FITC and propidium iodide (PI). Annexin V detects apoptotic cells, and PI stains dead cells. After staining, apoptotic cells show green fluorescence, dead cells show red and green fluorescence, and live cells show little or no fluorescence. Cells were selected for analysis based on forward scatter (FSC) vs. side scatter (SSC), and analyzed by BD Accuri C6 Plus flow cytometer to detect Annexin V-FITC binding (Ex=488 nm; Em=530 nm) using FITC signal detector and PI staining by the phycoerythrnn emission signal detector. Percentage of Annexin V^low and PI^low were quantified and presented as % Viability.
# We examined the cytotoxicity of additional retro inverso and mixed chirality BCL9 mimetic peptides in HL60 cells using the assay described above.
row,Structure (SMILES),cytotoxic activity
1,CC(C)C[C@@H](NC(=O)[C@@H](CCC(N)=O)NC(=O)[C@@H](C)NC(=O)[C@@H](CC(C)C)NC(=O)[C@@H](CCCNC(=N)N)NC(=O)[C@@H](C)NC(=O)[C@@H](CC(C)C)NC(=O)[C@@H](CCC(N)=O)NC(=O)[C@@H](CCCNC(=N)N)NC(=O)[C@@H](C)NC(=O)[C@@H](CC(C)C)NC(=O)[C@@H](Cc1c[nH]c2ccccc12)NC(=O)[C@H](N)Cc1c[nH]c2ccccc12)C(=O)N[C@H](C)C(=O)O [BCL-12] (H-[dW][dW][dL][dA][dR][dQ][dL][dA][dR][dL][dA][dQ][dL][dA]-OH; N-terminus and C-terminus assumed),no cytotoxic activity

# Same assay, conditions: 48 hours, 0-80 μM, % Viability (Annexin V low, PI low)
row,Structure (SMILES),EC50
1,CC(C)C[C@@H](NC(=O)[C@@H](Cc1c[nH]c2ccccc12)NC(=O)[C@H](N)Cc1c[nH]c2ccccc12)C(=O)N[C@H](C)C(=O)N[C@H](CCCNC(=N)N)C(=O)N[C@H](CCC(N)=O)C(=O)N[C@H](CC(C)C)C(=O)N[C@H](C)C(=O)N[C@H](CCCNC(=N)N)C(=O)N[C@H](CC(C)C)C(=O)N[C@H](CCCNC(=N)N)C(=O)N[C@H](CCC(N)=O)C(=O)N[C@H](CC(C)C)C(=O)N[C@H](C)C(=O)N[C@H](CCCCN)C(=O)N[C@H](CC(C)C)C(=O)N[C@@H](C(=O)N1CCC[C@@H]1C(=O)N[C@@H](C(=O)O)C(C)C)[C@H](C)O [BCL-80] (H-[dW][dW][dL][dA][dR][dQ][dL][dA][dR][dL][dR][dQ][dL][dA][dK][dL][dT][dP][dV]-OH; N-terminus and C-terminus assumed),< 2000 nM
2,CC(C)C[C@@H](NC(=O)[C@@H](Cc1c[nH]c2ccccc12)NC(=O)[C@@H](N)Cc1c[nH]c2ccccc12)C(=O)N[C@H](C)C(=O)N[C@H](CCCNC(=N)N)C(=O)N[C@H](CCC(N)=O)C(=O)N[C@H](CC(C)C)C(=O)N[C@H](C)C(=O)N[C@H](CCCNC(=N)N)C(=O)N[C@H](CC(C)C)C(=O)N[C@H](C)C(=O)N[C@H](CCC(N)=O)C(=O)N[C@H](CC(C)C)C(=O)N[C@H](C)C(=O)N[C@H](CCCCN)C(=O)N[C@H](CC(C)C)C(=O)N[C@@H](C(=O)N1CCC[C@@H]1C(=O)N[C@@H](C(=O)O)C(C)C)[C@H](C)O [BCL-95] (H-W[dW][dL][dA][dR][dQ][dL][dA][dR][dL][dA][dQ][dL][dA][dK][dL][dT][dP][dV]-OH; N-terminus and C-terminus assumed),< 2000 nM
3,CC(C)C[C@@H](NC(=O)[C@@H](CCCNC(=N)N)NC(=O)[C@@H](C)NC(=O)[C@@H](CC(C)C)NC(=O)[C@@H](CCC(N)=O)NC(=O)[C@@H](CCCNC(=N)N)NC(=O)[C@H](NC(=O)[C@@H](CC(C)C)NC(=O)[C@@H](Cc1c[nH]c2ccccc12)NC(=O)[C@H](Cc1c[nH]c2ccccc12)NC(=O)CNC(=O)[C@@H](CCCNC(=N)N)NC(=O)CNC(=O)[C@@H](CC(=O)O)NC(=O)[C@@H](CO)NC(=O)[C@H]1CCCN1)C(C)C)C(=O)N[C@H](C)C(=O)N[C@H](CCC(N)=O)C(=O)N[C@H](CC(C)C)C(=O)N[C@H](C)C(=O)N[C@H](CCCCN)C(=O)N[C@H](CC(C)C)C(=O)N[C@@H](C(=O)N1CCC[C@@H]1C(=O)N[C@@H](C(=O)O)C(C)C)[C@H](C)O [BCL-139] (H-[dP][dS][dD]G[dR]GW[dW][dL][dV][dR][dQ][dL][dA][dR][dL][dA][dQ][dL][dA][dK][dL][dT][dP][dV]-OH; N-terminus and C-terminus assumed),< 2000 nM
4,CC(C)C[C@@H](NC(=O)[C@@H](Cc1c[nH]c2ccccc12)NC(=O)[C@H](N)Cc1ccc2ccccc2c1)C(=O)N[C@H](C)C(=O)N[C@H](CCCNC(=N)N)C(=O)N[C@H](CCC(N)=O)C(=O)N[C@H](CC(C)C)C(=O)N[C@H](C)C(=O)N[C@H](CCCNC(=N)N)C(=O)N[C@H](CC(C)C)C(=O)N[C@H](C)C(=O)N[C@H](CCC(N)=O)C(=O)N[C@H](CC(C)C)C(=O)N[C@H](C)C(=O)N[C@H](CCCCN)C(=O)N[C@H](CC(C)C)C(=O)N[C@@H](C(=O)N1CCC[C@@H]1C(=O)N[C@@H](C(=O)O)C(C)C)[C@H](C)O [BCL-78] (H-[d2Nal][dW][dL][dA][dR][dQ][dL][dA][dR][dL][dA][dQ][dL][dA][dK][dL][dT][dP][dV]-OH; N-terminus and C-terminus assumed),< 2000 nM
5,CC(C)C[C@@H](NC(=O)[C@@H](Cc1c[nH]c2ccccc12)NC(=O)[C@H](N)Cc1c[nH]c2ccccc12)C(=O)N[C@H](C)C(=O)N[C@H](CCCNC(=N)N)C(=O)N[C@H](CCC(N)=O)C(=O)N[C@H](CC(C)C)C(=O)N[C@H](C)C(=O)N[C@H](CCCNC(=N)N)C(=O)N[C@H](CC(C)C)C(=O)N[C@H](CCC(N)=O)C(=O)N[C@H](CCC(N)=O)C(=O)N[C@H](CC(C)C)C(=O)N[C@H](C)C(=O)N[C@H](CCCCN)C(=O)N[C@H](CC(C)C)C(=O)N[C@@H](C(=O)N1CCC[C@@H]1C(=O)N[C@@H](C(=O)O)C(C)C)[C@H](C)O [BCL-85] (H-[dW][dW][dL][dA][dR][dQ][dL][dA][dR][dL][dQ][dQ][dL][dA][dK][dL][dT][dP][dV]-OH; N-terminus and C-terminus assumed),< 2000 nM
6,CC(C)C[C@@H](NC(=O)[C@@H](Cc1c[nH]c2ccccc12)NC(=O)[C@@H](N)CCCNC(=N)N)C(=O)N[C@H](C)C(=O)N[C@H](CCCNC(=N)N)C(=O)N[C@H](CCC(N)=O)C(=O)N[C@H](CC(C)C)C(=O)N[C@H](C)C(=O)N[C@H](CCCNC(=N)N)C(=O)N[C@H](CC(C)C)C(=O)N[C@H](C)C(=O)N[C@H](CCC(N)=O)C(=O)N[C@H](CC(C)C)C(=O)N[C@H](C)C(=O)N[C@H](CCCCN)C(=O)N[C@H](CC(C)C)C(=O)N[C@@H](C(=O)N1CCC[C@@H]1C(=O)N[C@@H](C(=O)O)C(C)C)[C@H](C)O [BCL-100] (H-R[dW][dL][dA][dR][dQ][dL][dA][dR][dL][dA][dQ][dL][dA][dK][dL][dT][dP][dV]-OH; N-terminus and C-terminus assumed),< 2000 nM
7,CC(C)C[C@@H](NC(=O)[C@@H](CCC(N)=O)NC(=O)[C@@H](C)NC(=O)[C@@H](CC(C)C)NC(=O)[C@@H](CCCNC(=N)N)NC(=O)[C@@H](C)NC(=O)[C@@H](CC(C)C)NC(=O)[C@@H](CCC(N)=O)NC(=O)[C@@H](CCCNC(=N)N)NC(=O)[C@@H](C)NC(=O)[C@@H](CC(C)C)NC(=O)[C@@H](Cc1c[nH]c2ccccc12)NC(=O)[C@H](N)Cc1c[nH]c2ccccc12)C(=O)N[C@H](C)C(=O)O [BCL-12] (H-[dW][dW][dL][dA][dR][dQ][dL][dA][dR][dL][dA][dQ][dL][dA]-OH; N-terminus and C-terminus assumed),> 80000 nM
8,CC(C)C[C@@H](NC(=O)[C@@H](Cc1c[nH]c2ccccc12)NC(=O)[C@@H](N)Cc1ccccc1)C(=O)N[C@H](C)C(=O)N[C@H](CCCNC(=N)N)C(=O)N[C@H](CCC(N)=O)C(=O)N[C@H](CC(C)C)C(=O)N[C@H](C)C(=O)N[C@H](CCCNC(=N)N)C(=O)N[C@H](CC(C)C)C(=O)N[C@H](C)C(=O)N[C@H](CCC(N)=O)C(=O)N[C@H](CC(C)C)C(=O)N[C@H](C)C(=O)N[C@H](CCCCN)C(=O)N[C@H](CC(C)C)C(=O)N[C@@H](C(=O)N1CCC[C@@H]1C(=O)N[C@@H](C(=O)O)C(C)C)[C@H](C)O [BCL-99] (H-F[dW][dL][dA][dR][dQ][dL][dA][dR][dL][dA][dQ][dL][dA][dK][dL][dT][dP][dV]-OH; N-terminus and C-terminus assumed),2000 to 10000 nM
9,CC(C)C[C@@H](NC(=O)[C@@H](Cc1c[nH]c2ccccc12)NC(=O)[C@H](N)Cc1c[nH]c2ccccc12)C(=O)N[C@H](C)C(=O)N[C@H](CCCNC(=N)N)C(=O)N[C@H](CCC(N)=O)C(=O)N[C@H](CC(C)C)C(=O)N[C@H](CCC(=O)O)C(=O)N[C@H](CCCNC(=N)N)C(=O)N[C@H](CC(C)C)C(=O)N[C@H](C)C(=O)N[C@H](CCC(N)=O)C(=O)N[C@H](CC(C)C)C(=O)N[C@H](C)C(=O)N[C@H](CCCCN)C(=O)N[C@H](CC(C)C)C(=O)N[C@@H](C(=O)N1CCC[C@@H]1C(=O)N[C@@H](C(=O)O)C(C)C)[C@H](C)O [BCL-76] (H-[dW][dW][dL][dA][dR][dQ][dL][dE][dR][dL][dA][dQ][dL][dA][dK][dL][dT][dP][dV]-OH; N-terminus and C-terminus assumed),> 10000 nM
10,CC(C)C[C@@H](NC(=O)[C@@H](Cc1c[nH]c2ccccc12)NC(=O)[C@H](N)Cc1c[nH]c2ccccc12)C(=O)N[C@H](C)C(=O)N[C@H](CCCNC(=N)N)C(=O)N[C@H](CCC(N)=O)C(=O)N[C@H](CC(C)C)C(=O)N[C@H](CCC(=O)O)C(=O)N[C@H](CCCNC(=N)N)C(=O)N[C@H](CC(C)C)C(=O)N[C@H](CCCNC(=N)N)C(=O)N[C@H](CCCNC(=N)N)C(=O)N[C@H](CC(C)C)C(=O)N[C@H](C)C(=O)N[C@H](CCCCN)C(=O)N[C@H](CC(C)C)C(=O)N[C@@H](C(=O)N1CCC[C@@H]1C(=O)N[C@@H](C(=O)O)C(C)C)[C@H](C)O [BCL-88] (H-[dW][dW][dL][dA][dR][dQ][dL][dE][dR][dL][dR][dR][dL][dA][dK][dL][dT][dP][dV]-OH; N-terminus and C-terminus assumed),< 2000 nM
11,CC(C)C[C@@H](NC(=O)[C@@H](Cc1c[nH]c2ccccc12)NC(=O)[C@H](N)Cc1cccc2ccccc12)C(=O)N[C@H](C)C(=O)N[C@H](CCCNC(=N)N)C(=O)N[C@H](CCC(N)=O)C(=O)N[C@H](CC(C)C)C(=O)N[C@H](C)C(=O)N[C@H](CCCNC(=N)N)C(=O)N[C@H](CC(C)C)C(=O)N[C@H](C)C(=O)N[C@H](CCC(N)=O)C(=O)N[C@H](CC(C)C)C(=O)N[C@H](C)C(=O)N[C@H](CCCCN)C(=O)N[C@H](CC(C)C)C(=O)N[C@@H](C(=O)N1CCC[C@@H]1C(=O)N[C@@H](C(=O)O)C(C)C)[C@H](C)O [BCL-77] (H-[d1Nal][dW][dL][dA][dR][dQ][dL][dA][dR][dL][dA][dQ][dL][dA][dK][dL][dT][dP][dV]-OH; N-terminus and C-terminus assumed),< 2000 nM
